Consider one compound from patent US20250327074A1 (SHAOXING INSTITUTE, ZHEJIANG UNIVERSITY, priority 2024, published 2025).

Common to all, as to type: cell-based
Test [1] deals with rare codon in EGFP reporter, HEK293T cells. As to the kind of experiment: LC-MS recoding efficiency of rare codons in EGFP reporter. As to conditions: TetRS/PylTyyy, 200 μM TetBu, HEK293T. The method, then:
(§1) The recoding translation system and the rare codon-bearing POI were co-transfected into HEK293T cells. Then, two methods were used to calculate the ncAA recoding rate: 1) LC-MS analysis: the protein of the POI mixture, including the fraction incorporated with ncAA and the fraction with NAA at rare codons, was purified by Ni2+-NTA beads and subjected to LC-MS analysis. The ncAA recoding rate was determined by the intensity of two fractions quantified by LC-MS. 2) TCO-PEG5000 mass tag labeling analysis: this method was suitable for quantifying the TetBu recoding rate in this work. When the protein mixture was incubated with TCO-PEG5000 mass tag, the protein incorporated with TetBu would be labeled by this mass tag and migrated much slower in SDS-PAGE.
(§2) When the recoding system (TetRS/PylTyyy) is co-expressed with a target protein carrying the recoding codon in HEK293T, the recoding codon can be translated into a natural amino acid by endogenous tRNA (Dec-tRNA), or recoding into TetBu by the engineered tRNA (Rec-tRNA), producing a mixture of protein byproducts (with a single-site mutation) and the target protein containing TetBu. Based on this, two methods were established to assess sense codon recoding efficiency: a) Liquid chromatography-mass spectrometry (LC-MS) for differentiates proteins based on molecular weight differences, and b) TCO-PEG5000 macromolecular label target proteins containing TetBu, which increases their molecular weight by 5 kDa. The shift in protein bands is detected via immunoblotting (FIG. 2).
(1) Transfection: Plasmids encoding the TetBu/PylTyyy recoding system (where xxx represents different codons and yyy represents different anticodons) were co-transfected with the plasmid mCherry-T2A-EGFP^N149XXX-6×His at a 1:1 (g:g) ratio. For a 10 cm dish, the total transfection mixture contained 20 μg DNA+[…] Lipofectamine 2000+2 mL Opti-MEM.
(2) Protein expression and purification: After 6 hours, the medium was replaced with fresh DMEM containing 200 μM TetBu for 40 hours to induce protein expression. Cells were lysed in 1 mL Modified RIPA Buffer, and the supernatant was purified using Ni-NTA beads.
(3) LC-MS analysis of recoding efficiency:Using a Waters Xevo G2-XS TOF Mass Spectrometer, the recoding efficiency of rare codons (CTA, GTA, CGT, CCG, GCG, ACG, and TCG) at the EGFP149 site was evaluated.
(2) Cell transfection and protein expression purification: HEK293T cells were seeded in 10 cm culture dishes and transfected at 60-70% confluency. For each transfection, […] of plasmid carrying mCherry-T2A-EGFPY151TCG-6×His was co-transfected with one of the following recoding system plasmids: chPhe_AcFRS/12×(U6-chPheTCGA), EcTyr_OmeYRS/12×(U6-EcTyrTCGA), or EcLeu_OmeYRS/12×(U6-EcLeuTCGA). After 6 hours, the medium was replaced with serine/glycine-free DMEM/F12 containing 500 μM of the respective unnatural amino acid. Following protein expression and purification, LC-MS was used to determine TCG recoding efficiency at position 151 of EGFP. Detailed transfection and purification protocols following section 2.2.1.2, with cell culture conditions in serine-free medium as described in Example 2.

The subject of test [2] is HEK293T cells proteome. Put plainly: Proteome background incorporation, TCO-biotin streptavidin dot blot. To be noted: CTA and TCG codon groups among 7 rare codons; 200 μM TetBu. From the text:
When the TetRS/PylTyyy recoding system is expressed in HEK293T, it recodes endogenous genomic codons into TetBu, generating a modified proteome containing TetBu. The IEDDA reaction between TetBu and trans-cyclooctene (TCO) enables biotinylation of TetBu-containing proteins via TCO-Biotin. Streptavidin dot blot detects biotin signals, where signal intensity correlates with TetBu incorporation levels (FIG. 3, right).
1.3.2 Screening of Rare Codons with Low Background Incorporation • (1) Intracellular expression of the recoding system: Plasmids encoding TetBu/PylTyyy (yyy=anticodons for TCG, ACG, GCG, CCG, CGT, GTA, CTA) were transfected using Lipofectamine 2000. After 6 hours, cells were treated with fresh DMEM±200 μM TetBu for 40 hours. Cells were lysed in 100 μL Modified RIPA Buffer to obtain whole-cell lysates.
The reaction system was prepared as described in Table 3. Reaction products were mixed with 7 μL bromophenol blue-free 4×SDS loading buffer, boiled at 100° C. for 10 min, and analyzed via streptavidin dot blot.
Samples were spotted onto a nitrocellulose membrane and air-dried at room temperature for 15 min. The membrane was washed with 10 mL TBST (80 rpm, 5 min) three times, discarding the supernatant each time. Blocking was performed with 10 mL TBST containing 5% non-fat milk for 1 h, followed by three additional TBST washes (10 mL, 80 rpm, 5 min each). […]

The test system of test [3] is Ser-tRNACGA knockout HEK293T cell lines 1A8, 2A3, 3A12, 4C23. Put plainly: LC-MS TCG recoding efficiency in Ser-tRNACGA knockout cell lines. As to conditions: for efficiency in recoding TCG codon at position 151 of EGFP: single-copy recoding tRNA. The source says:
Four sgRNAs targeting Ser-tRNACGA were designed (Table 6). CRISPR/Cas9 was used to generate knockout polyclonal populations, followed by FACS sorting to isolate monoclonal lines. Sequencing confirmed successful editing in four knockout strains: 1A8, 2A3, 3A12, and 4C23 (FIG. 6).
This example evaluates the TCG codon recoding capability of the knockout cell lines using the TetRS/PylTCGA recoding system as a model.

For test [4], the system named is IL-1B, IL-2, IL-4, IL-6 bearing TCG codon, HEK293T cells. As to the kind of experiment: TCO-PEG5000 mass tag labeling recoding efficiency in interleukin proteins. To be noted: TetRS/PylTCGA, 200 μM TetBu, serine/glycine-free. The method, then:
as §1, §2
The recoding system and plasmids containing the TCG codon for the cytokines were co-transfected into HEK293T cells. Six hours post-transfection, the medium was replaced with serine/glycine-free DMEM/F12 medium supplemented with 200 μM TetBu. After 40 hours of protein expression, 500 μL of Modified RIPA lysis buffer was added to each well to lyse the cells. The TCO-PEG5000 labeling method was used to assess the recoding efficiency.

Consider `CCCCc1nnc(-c2cccc(C[C@H](N)C(=O)O)c2)nn1` [TetBu, (S)-2-amino-3-(3-(6-butyl-1,2,4,5-tetrazin-3-yl)phenyl)propanoic acid], for which the recoding efficiency is given as 7.1% in test [1] (ACG codon at EGFP149 site) and 8.5% in test [1] (TCG codon at EGFP149 site). The “proteome-wide background TetBu incorporation (biotin signal intensity)” value in test [2] is given as “lowest biotin signal intensity”. The “efficiency in recoding TCG codon at position 151 of EGFP” value in test [3] (knockout cell line 1A8) stood at 61%; in test [3] (knockout cell line 2A3), 51%; in test [3] (knockout cell line 3A12), 58%; in test [3] (knockout cell line 4C23), 68%. For the same compound, the “improvement of TCG recoding compared to HEK293T cells” value in test [3] (strain 4C23) amounted to 1.4 fold. Also, the TetBu recoding efficiency in test [4] (position 62 of IL-2) is on record as 80.8%; in test [4] (position 87 of IL-6), 83.9%; in test [4] (position 121 of IL-4), 99.3%; in test [4] (position 205 of IL-1B), 78.10%.
